Measurements taken from PMC9229949 (Pharmaceutics, 2022).
Read-outs that look alike come from different tables or passages of the source.

Tests used:
[1] = tested on: β-hematin formation from Fe(III)PPIX (hematin); experiment: β-hematin inhibition activity, oxidizing conditions (O-BHIA, hematin); assay type: biochemical; settings: 18 h incubation; median ± S.E.M. of three experiments; free bases; read-out: β-Hematin Inhibitory Activity (BHIA) O-BHIA (Hematin), IC50
Protocol: (§1) A hemin chloride (10 μL of 4 mM stock in 80% DMSO) aliquot was dispensed in a U bottom 96-well microplate, and then, 10 μL of 0.1 M NaOH (O-BHIA) or 4 mM reduced glutathione in PBS at pH 7.0 (R-BHIA) was added, and plates were sealed and incubated at 37 °C for 2 h. After this, 10 μL of the drug dissolved in DMSO was added and incubated for 2 h, followed by the addition of 180 μL of sodium acetate buffer (1.0 M, pH 5.2) and 10 μL of nonionic detergent IGEPAL-CA-630 solution in methanol (10 mg/mL). Plates were sealed and incubated at 37 °C for 18 h. […] The reaction was stopped by the addition of 50 μL of a sodium dodecyl sulfate solution (5.0% v/v in 0.1 M bicarbonate buffer at pH 9.0). Plates were centrifuged at 3700 rpm for 5 min, and 100 μL of supernatant was placed in a separate plate. […] Two independent experiments were performed, and each drug concentration was tested in quadruplicate concentrations.

[2] = tested on: β-hematin formation from Fe(II)PPIX (heme); experiment: β-hematin inhibition activity, reducing conditions (R-BHIA, heme); assay type: biochemical; settings: 18 h incubation; median ± S.E.M. of three experiments; free bases; read-out: β-Hematin Inhibitory Activity (BHIA) R-BHIA (Heme), IC50
Protocol: as §1

[3] = tested on: 3D7 P. falciparum gametocytes stages I/III; experiment: P. falciparum young gametocytes (stages I/III), luciferase viability; assay type: cell-based; settings: Plasmodium falciparum, read-out: IC50, gametocytes of P. falciparum, Stages I/III
Protocol: (§2) The activity of compounds was assessed against young gametocytes (stages I/III) and against mature gametocytes (stage V). […] A volume of 100 μL of 3D7elo1-pfs16-CBG99 gametocytes of 3D7 P. falciparum at 0.5–1% parasitemia and 2% hematocrit were dispensed. […] Luciferase activity was used to determine gametocytes viability. A volume of 100 µL of culture medium was removed from each well to increase hematocrit; 70 µL of resuspended culture was transferred to a black 96-well plate; 70 µL of D-luciferin (1 mM in citrate buffer 0.1 M, pH 5.5) was added. Luminescence measurements were performed after 10 min with 500 ms integration time. The IC50 was extrapolated from nonlinear regression analysis of the concentration–response curve.

[4] = Cytotoxicity against J774 cells (CellTiter-Glo); assay type: cell-based, murine; settings: mouse, J774 macrophage cells; reference drug, J774; read-out: CC50 for J774
Protocol: (§3) In vitro cytotoxicity was assayed against two mammalian cell lineages, J774 (murine macrophages) and HepG2 (human hepatocellular carcinoma). […] Cell cultures from 60 to 80% confluence were trypsinized, washed in complete medium, and 4 × 10^4 cells were plated in 100 µL per well with complete medium in 96-well flat-bottom white plates for 24 h at 37 °C prior to the addition of the compounds. Triplicate aliquots of compound and the reference drugs (stock solution in DMSO) covering 7 different concentrations at 2-fold dilutions were added to the wells, and plates were incubated for 72 h more. After incubation for 72 h at 37 °C, plates were maintained at room temperature, the culture medium was removed, and 100 µL volume of CellTiter-Glo reagent was added to each well. The bioluminescence was measured using a microplate reader Filtermax F5 Multi-Mode instrument (Molecular Devices) and Softmax software. […] The selectivity index (S.I.) was estimated using the IC50s from mammalian cells divided by the IC50 obtained against the asexual blood stage P. falciparum.

[5] = Cytotoxicity against uninfected HepG2 cells (CellTiter-Glo); assay type: cell-based; settings: human, reference drug
Protocol: as §3

[6] = tested on: P. berghei sporozoites in Huh-7 cells; experiment: P. berghei hepatic stages: infection of Huh-7 cells by luciferase-expressing sporozoites; assay type: cell-based; settings: Plasmodium berghei, Huh-7, 48 h, read-out: Sporozoites (Inhibition of Infection, %)
Protocol: Huh-7 cells at 1.0 × 10^4 per well were seeded in 96-well plates the day before drug treatment and infection. The culture medium was replaced by infection medium (culture medium supplemented with gentamicin (50 μg/mL) and amphotericin B (0.8 μg/mL)) containing the appropriate concentration of each compound for approximately 1 h prior to infection with sporozoites of firefly luciferase-expressing P. berghei, freshly obtained through the disruption of salivary glands of infected female Anopheles stephensi mosquitoes. An amount of the DMSO solvent equivalent to that present in the highest compound concentration was used as negative control. Sporozoite addition was followed by centrifugation at 1800× g for 5 min. and parasite infection load was measured 48 h after infection by using a bioluminescence assay (Biotium, Hayward, CA, USA). The effect of the compounds on the viability of Huh-7 cells was assessed by performing the AlamarBlue (Invitrogen, Waltham, MA, USA) assay according to the manufacturer’s protocol.

[7] = tested on: β-hematin formation; experiment: β-hematin formation inhibition by infrared spectroscopy; assay type: biochemical; set-up: key: Yes indicates β-hematin inhibition; No indicates β-hematin formation; settings: 3:1 ratio of drug:hematin, qualitative by infrared
Protocol: The conversion of hemin to β-hematin was determined by infrared (IR) spectroscopy as described by Egan et al.. […] Then, 0.3 mL of 0.1 M HCl and 1.7 mL of sodium acetate buffer ([…], pH 5) were added at the same temperature. […] The solid was dried and IR spectra were obtained using attenuated total reflection (ATR) using chloroquine as a positive control.

[8] = tested on: 3D7 P. falciparum gametocytes stage V; experiment: P. falciparum mature gametocytes (stage V), luciferase viability; assay type: cell-based; settings: Plasmodium falciparum, 3D7, 72 h, read-out: IC50, gametocytes of P. falciparum, Stage V
Protocol: as §2

[9] = tested on: P. falciparum W2 (CQ-resistant) asexual blood stages; experiment: In vitro activity against asexual blood stages of P. falciparum, CQ-resistant strain W2 (HRP2 ELISA); assay type: cell-based; settings: Plasmodium falciparum, read-out: P. falciparum, IC50 ± S.E.M., CQ-Resistant W2
Protocol: (§4) The plates were incubated for 72 h at 37 °C in controlled atmosphere. After frozen and thawing the plates, hemolyzed cultures were homogenized by vortexing the plates. The antiparasitic activity was determined using the HRP2 ELISA-based assay Malaria Ag Celisa kit (ref KM2159, Cellabs PTY LDT, Brookvale, Australia). […] IC50s are expressed as means of three to five experiments.

[10] = tested on: P. falciparum 3D7 (CQ-susceptible) asexual blood stages; experiment: In vitro activity against asexual blood stages of P. falciparum, CQ-susceptible strain 3D7 (HRP2 ELISA); assay type: cell-based; settings: Plasmodium falciparum, read-out: P. falciparum, IC50 ± S.E.M., CQ-Susceptible 3D7
Protocol: as §4

[11] = Interaction with reduced glutathione (GSH) by monochlorobimane fluorescence assay; settings: 2 h incubation, 10 to 0.3 drug:GSH molar ratio
Protocol: Ten microliters per well of a solution of 2.0 mM reduced glutathione (Sigma-Aldrich, St. Louis, MO, USA, dissolved in PBS pH 7.2) was distributed in a 96-well microplate containing 170 μL/well of DMSO/PBS (1:1; v/v). Stock solutions of compounds were diluted in DMSO, and 10 μL was added in quadruplicate in the respective wells to a final concentration of 0.015 to 0.5 mM. […] After 1 h incubation at room temperature, fluorescence was recorded (λex = 360 nm, λem = 440 nm). Blank subtraction was performed prior to monochlorobimane addition, and controls included untreated wells (no drug) and no GSH. The results were expressed as a percentage of inhibition of GSH binding to monochlorobimane in comparison to control without compound. At least two independent experiments were performed.

Row | SMILES | IC50 [1] [µM] | IC50 [2] [µM] | β-Hematin Inhibitory Activity (BHIA) Determined by IR [7] | interaction with GSH [11] | further results
1 | C[C@@H]1CC[C@H]2[C@@H](C)C(=O)O[C@@H]3O[C@@]4(C)CC[C@@H]1[C@]32OO4 [Artemisinin (ARS), artemisinin] | > 1000 | 60 ± 10 |  |  | 
2 | C[C@H]1[C@@H](O)O[C@@H]2O[C@@]3(C)CC[C@H]4[C@H](C)CC[C@@H]1[C@@]24OO3 [DHA, dihydroartemisinin] |  |  |  |  | IC50 ([3]; 3D7 strain, 72 h, mean ± S.D. of one experiment): 0.0123 ± 0.0054 µM
3 | COc1cccc2c1C(=O)c1c(O)c3c(c(O)c1C2=O)C[C@@](O)(C(=O)CO)C[C@@H]3O[C@H]1C[C@H](N)[C@H](O)[C@H](C)O1 [doxorubicin] |  |  |  |  | CC50 at 72 h [4]: 0.44 ± 0.31 µM; CC50 at 72 h [5]: < 0.12 µM
4 | COc1cc(NC(C)CCCN)c2ncccc2c1 (centres unmarked) [Primaquine (PQ), primaquine] | > 1000 | > 1000 | No |  | inhibition at 10 µM [6]: 52%; IC50 [8]: 43.2 ± 10.6 µM; IC50 ([9]; W2, 72 h incubation, HRP2 ELISA, mean ± S.E.M. of at least three experiments, AQ hydrochloride hydrate, PQ diphosphate, CQ diphosphate): 0.182 ± 0.016 µM; IC50 ([3]; 3D7, 72 h): 13.7 ± 7.6 µM; IC50 ([10]; 3D7, 72 h incubation, HRP2 ELISA, mean ± S.E.M. of at least three experiments, AQ hydrochloride hydrate, PQ diphosphate, CQ diphosphate): 1.12 ± 0.053 µM
5 | c1cnc2c(c1)ccc1cccnc12 [phenanthroline] |  |  |  | neither CQ nor phenanthroline interacted with GSH | 
6 | CCN(CC)CCCC(C)Nc1ccnc2cc(Cl)ccc12 (centres unmarked) [Chloroquine (CQ), chloroquine] | 230 ± 40 | 130 ± 30 | Yes | neither CQ nor phenanthroline interacted with GSH | IC50 ([9]; W2, 72 h): 0.459 ± 0.021 µM; IC50 ([10]; 3D7, 72 h): 0.018 ± 0.002 µM
